In one assay the target is T1, Hepcidin (Homo sapiens) (UniProt P81172).
T1 sequence (whole entry): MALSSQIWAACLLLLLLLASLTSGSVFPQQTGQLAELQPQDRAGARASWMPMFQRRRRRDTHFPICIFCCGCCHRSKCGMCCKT
Briefly: Inhibition of human hepcidin-stimulated recombinant C-terminal Halo-tagged human FPN internalization in MDCK cells at 10 uM incubated for 15 to 20 mins by Halo-tagged TMR based fluorescence assay relative to control. It counts as cell-based.

In another assay the target is Ferroportin (Homo sapiens, UniProt Q9NP59). Put plainly: Inhibition of human hepcidin-stimulated recombinant C-terminal Halo-tagged human FPN internalization in MDCK cells incubated for 15 to 20 mins by Halo-tagged TMR based fluorescence assay. It counts as cell-based.
Chain of Ferroportin (Q9NP59 whole entry, looked up): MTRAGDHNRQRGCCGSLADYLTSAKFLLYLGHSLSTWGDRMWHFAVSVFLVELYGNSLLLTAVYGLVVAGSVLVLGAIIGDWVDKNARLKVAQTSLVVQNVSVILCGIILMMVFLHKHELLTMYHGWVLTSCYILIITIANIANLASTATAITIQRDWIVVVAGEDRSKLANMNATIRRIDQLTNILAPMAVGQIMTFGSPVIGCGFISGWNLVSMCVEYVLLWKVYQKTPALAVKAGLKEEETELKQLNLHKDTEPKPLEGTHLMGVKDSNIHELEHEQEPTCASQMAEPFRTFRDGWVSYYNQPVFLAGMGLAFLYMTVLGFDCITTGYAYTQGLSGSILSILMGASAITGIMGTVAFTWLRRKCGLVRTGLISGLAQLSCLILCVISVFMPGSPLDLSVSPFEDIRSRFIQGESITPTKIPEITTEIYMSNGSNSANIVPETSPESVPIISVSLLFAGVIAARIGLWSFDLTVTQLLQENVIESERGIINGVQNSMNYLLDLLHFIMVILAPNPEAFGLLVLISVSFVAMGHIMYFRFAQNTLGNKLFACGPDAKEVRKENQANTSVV

The source of these data is ChEMBL document CHEMBL4418271, “Novel Ethanediamone Hepcidine Antagonists” (2012).

For the compound `c1ccc(C(CN2CCC(N3CCCCC3)CC2)NCCN2CCOCC2)cc1` (configuration not stated), the inhibition on Hepcidin (Homo sapiens) is under 50%. The IC50 on Ferroportin was under 100 µM.
Take `COCCN1CCN(C(CN2CCC(C3CCCCC3)CC2)c2ccccc2)CC1` (configuration not stated): the IC50 on Ferroportin is over 100 µM.
For the compound `COCCN1CCN(C(CN2CCC(Nc3ccccc3)CC2)c2ccccc2)CC1` (configuration not stated), the concentration for half-maximal inhibition (IC50) at Ferroportin was over 100 µM.
Take `COCCN1CCN(C(CN2CCC(N(C)C)CC2)c2ccccc2)CC1` (configuration not stated): the IC50 on Ferroportin was under 50 µM.
Take `O=C(C1CCCO1)N1CCN(C(CN2CCC(N3CCCCC3)CC2)c2ccccc2)CC1` (configuration not stated): on Ferroportin, the half-maximal inhibitory concentration (IC50) was over 100 µM.
On to `COCCN1CCN(C(CN2CCC(N3CCCCC3)CC2)c2ccc(OC)cc2)CC1` (configuration not stated), for which the 50% inhibitory concentration (IC50) at Ferroportin was under 50 µM.
In the case of `COCCN1CCN(C(CN2CCCCC2)c2ccccc2)CC1` (configuration not stated), the half-inhibitory concentration (IC50) on Ferroportin is under 100 µM.
`CN(CCN(C)c1cnccn1)CC(NCc1ccccn1)c1ccc(F)cc1` (configuration not stated): the concentration for half-maximal inhibition (IC50) at Ferroportin was under 50 µM.
As for `COCCN1CCN(C(CN2CCC(N3CCCCC3)CC2)c2ccc(OC(C)C)cc2)CC1` (configuration not stated), at Ferroportin, the 50% inhibitory concentration (IC50) was over 100 µM.
For the compound `COc1ccccc1C(=O)N1CCN(CC(NCc2ccccn2)c2ccc(F)cc2)CC1` (configuration not stated), the 50% inhibitory concentration (IC50) at Ferroportin is under 50 µM.
Take `NC(CN1CCN(c2cnccn2)CC1)c1ccc(F)cc1` (configuration not stated): the 50% inhibitory concentration (IC50) on Ferroportin was over 100 µM.
For `O=S(=O)(c1ccccc1)N1CCN(CC(NCc2ccccn2)c2ccc(F)cc2)CC1` (configuration not stated), the IC50 on Ferroportin is over 100 µM.
Take `COCCN1CCN(C(CN2CCC(C(=O)NC3CCCCC3)CC2)c2ccccc2)CC1` (configuration not stated): on Ferroportin, the IC50 was over 100 µM.
Same read-out and setting: as for `COCCN1CCN(C(CN2CCC(N3CCCCC3)CC2)c2cccc(Cl)c2)CC1` (configuration not stated), the figure is over 100 µM; as for `CCCCN1CCN(C(CN2CCC(N3CCCCC3)CC2)c2ccccc2)CC1` (configuration not stated), over 100 µM; as for `COCCN1CCN(C(CN2CCC(N3CCOCC3)CC2)c2ccccc2)CC1` (configuration not stated), under 50 µM.
For `c1ccc(C(CN2CCCCC2)NCCN2CCOCC2)cc1` (configuration not stated), the IC50 at Ferroportin is under 100 µM.
`COCCN1CCN(C(CN2CCC(N3CCCC3)CC2)c2ccccc2)CC1` (configuration not stated): the IC50 on Ferroportin was under 50 µM.
Regarding `COCCN1CCN(C(CN2CCC(NC(=O)C(C)C)CC2)c2ccccc2)CC1` (configuration not stated), the IC50 on Ferroportin was under 100 µM.
With `COCCN1CCN(C(CN2CCC(N3CCCCC3)CC2)c2ccc(Cl)cc2)CC1` (configuration not stated), at Ferroportin, the concentration for half-maximal inhibition (IC50) was over 100 µM.
Regarding `COCCN1CCN(C(CN2CCC(N3CCCCC3)CC2)c2ccccc2)CC1` (configuration not stated), the inhibition at Hepcidin (Homo sapiens) was over 50%. Besides, the IC50 on Ferroportin was under 50 µM.
In the case of `COCCC1CCN(C(CN2CCC(N3CCCCC3)CC2)c2ccccc2)CC1` (configuration not stated), the half-maximal inhibitory concentration (IC50) at Ferroportin was over 100 µM.
Take `Fc1ccc(C(CN2CCN(c3cnccn3)CC2)NCc2cccs2)cc1` (configuration not stated): the IC50 at Ferroportin is over 50 µM.
Turning to `c1ccc(C(CN2CCC(N3CCCCC3)CC2)N2CCN(c3cnccn3)CC2)cc1` (configuration not stated), the IC50 on Ferroportin was over 100 µM.
On to `CCOc1ccc(C(CN2CCC(N3CCCCC3)CC2)N2CCN(CCOC)CC2)cc1` (configuration not stated), for which the half-maximal inhibitory concentration (IC50) at Ferroportin is over 100 µM.
Same read-out and setting: the figure for `COCCN1CCN(C(CN2CCC(NC(=O)c3ccccc3)CC2)c2ccccc2)CC1` (configuration not stated) is over 100 µM.
With `Fc1ccc(C(CN2CCN(c3cnccn3)CC2)NCc2ccccn2)cc1` (configuration not stated), on Hepcidin (Homo sapiens), the inhibition is over 50%. For the same compound, on Ferroportin, the concentration for half-maximal inhibition (IC50) is under 50 µM.
Consider `c1ccc(CNC(CN2CCN(c3cnccn3)CC2)c2ccncc2)nc1` (configuration not stated), for which the IC50 on Ferroportin is over 100 µM.
Regarding `Fc1ccccc1C(CN1CCN(c2cnccn2)CC1)NCc1ccccn1` (configuration not stated), the IC50 on Ferroportin was over 100 µM.
Consider `CCOCCN1CCN(C(CN2CCC(N3CCCCC3)CC2)c2ccccc2)CC1` (configuration not stated), for which the IC50 at Ferroportin was under 50 µM.
Regarding `O=C(C1CCCO1)N1CCN(CC(NCc2ccccc2)c2ccccc2)CC1` (configuration not stated), at Ferroportin, the IC50 is over 100 µM.
Take `COCCN1CCN(C(CN2CCC(N3CCCCC3)CC2)c2ccccc2Cl)CC1` (configuration not stated): the half-maximal inhibitory concentration (IC50) on Ferroportin is over 100 µM.
Consider `c1ccc(C(CN2CCC(N3CCCCC3)CC2)N2CCN(c3ccccn3)CC2)cc1` (configuration not stated), for which, on Ferroportin, the IC50 is over 100 µM.
As for `COCCNC(CN1CCN(c2cnccn2)CC1)c1ccc(F)cc1` (configuration not stated), the IC50 on Ferroportin is over 100 µM.
Regarding `COCCN1CCN(C(CN2CCC(N3CCCCC3)CC2)c2ccc(C)cc2)CC1` (configuration not stated), the IC50 on Ferroportin is under 50 µM.
On the same count and under the same terms, as for `CC(=O)N1CCN(CC(NCc2ccccn2)c2ccc(F)cc2)CC1` (configuration not stated), the figure is over 100 µM; as for `COCCN1CCN(C(CN2CCC(N3CCN(C)CC3)CC2)c2ccccc2)CC1` (configuration not stated), over 100 µM; as for `COCCN1CCN(C(CN2CCC(C(=O)Nc3ccccc3)CC2)c2ccccc2)CC1` (configuration not stated), under 100 µM.
With `Fc1cccc(C(CN2CCN(c3cnccn3)CC2)NCc2ccccn2)c1` (configuration not stated), the half-maximal inhibitory concentration (IC50) at Ferroportin is over 100 µM.
On the same count and under the same terms, as for `Fc1ccc(C(CN2CCN(c3ccccc3)CC2)NCc2ccccn2)cc1` (configuration not stated), the figure is over 100 µM; as for `NC(CN1CCN(C(=O)C2CCCO2)CC1)c1ccc(F)cc1` (configuration not stated), over 100 µM; as for `CNC(=O)C1CCN(CC(c2ccccc2)N2CCN(CCOC)CC2)CC1` (configuration not stated), under 100 µM.
On to `Clc1ccc(C(CN2CCN(c3cnccn3)CC2)NCc2ccccn2)cc1` (configuration not stated), for which the 50% inhibitory concentration (IC50) at Ferroportin is over 100 µM.
Consider `COCCN1CCN(C(CN2CCC(N3CCCCC3)CC2)c2cccc(OC)c2)CC1` (configuration not stated), for which the IC50 on Ferroportin was under 100 µM.
In the case of `COCCN1CCCN(C(CN2CCC(N3CCCCC3)CC2)c2ccccc2)CC1` (configuration not stated), the concentration for half-maximal inhibition (IC50) at Ferroportin is under 50 µM.
With `O=C(C1CCCO1)N1CCN(CC(NCc2cccs2)c2ccc(F)cc2)CC1` (configuration not stated), the IC50 at Ferroportin is over 100 µM.
Regarding `CCN(CC)C1CCN(CC(c2ccccc2)N2CCN(CCOC)CC2)CC1` (configuration not stated), the half-inhibitory concentration (IC50) on Ferroportin was under 50 µM.
Regarding `c1ccc(C(CN2CCC(N3CCCCC3)CC2)N2CCN(C3CCCC3)CC2)cc1` (configuration not stated), the half-inhibitory concentration (IC50) at Ferroportin was over 100 µM.
Regarding `O=C(C1CCCO1)N1CCN(CC(NCc2ccccn2)c2ccc(F)cc2)CC1` (configuration not stated), the inhibition at Hepcidin (Homo sapiens) was under 50%.
With `CCOC(=O)C1CCN(CC(c2ccccc2)N2CCN(CCOC)CC2)CC1` (configuration not stated), at Ferroportin, the half-maximal inhibitory concentration (IC50) is over 100 µM.
Take `Fc1ccc(C(CN2CCN(c3ccccn3)CC2)NCc2ccccn2)cc1` (configuration not stated): the IC50 on Ferroportin is over 100 µM.
Regarding `c1ccc(C(CN2CCC(N3CCCCC3)CC2)N2CCN(CC3CCCO3)CC2)cc1` (configuration not stated), the IC50 on Ferroportin was under 50 µM.
Regarding `COCCN1CCN(C(CN2CCC(N3CCC(C)CC3)CC2)c2ccccc2)CC1` (configuration not stated), the 50% inhibitory concentration (IC50) at Ferroportin was under 100 µM.
Consider `c1ccc(C(CN2CCC(N3CCCCC3)CC2)N2CCN(CCn3ccnc3)CC2)cc1` (configuration not stated), for which, at Ferroportin, the IC50 was over 100 µM.
On the same count and under the same terms, as for `COc1ccc(CNC(CN2CCCCC2)c2ccccc2)cc1` (configuration not stated), the figure is over 100 µM.
Consider `COCCN1CCN(C(CN2CCC(N3CCCCC3)CC2)c2ccc(C(F)(F)F)cc2)CC1` (configuration not stated), for which, at Ferroportin, the half-maximal inhibitory concentration (IC50) is under 50 µM.
On to `COCCN1CCN(C(CN2CCN(c3ccccc3)CC2)c2ccccc2)CC1` (configuration not stated), for which, on Ferroportin, the 50% inhibitory concentration (IC50) was over 100 µM.
Same read-out and setting: the figure for `COCCNC(CN1CCN(C(=O)C2CCCO2)CC1)c1ccc(F)cc1` (configuration not stated) is over 100 µM; for `COCCN1CCN(C(CN2CCC(NC3CCCC3)CC2)c2ccccc2)CC1` (configuration not stated) it is under 50 µM; for `O=C(c1ccccn1)N1CCN(CC(NCc2ccccn2)c2ccc(F)cc2)CC1` (configuration not stated) it is over 100 µM.
On the same count and under the same terms, the figure for `CCN(CC)CCN1CCN(C(CN2CCC(N3CCCCC3)CC2)c2ccccc2)CC1` (configuration not stated) is over 100 µM; for `COCCN1CCN(C(CN2CCC(N3CCCCC3)CC2)c2ccc(C#N)cc2)CC1` (configuration not stated) it is under 50 µM.
Same read-out and setting: as for `COCCN1CCN(C(CN2CCC(NC(=O)C3CCCCC3)CC2)c2ccccc2)CC1` (configuration not stated), the figure is under 50 µM.
As to `COc1ccc(CNC(CN2CCC(N3CCCCC3)CC2)c2ccccc2)cc1` (configuration not stated), the inhibition at Hepcidin (Homo sapiens) was under 50%. On Ferroportin, the half-inhibitory concentration (IC50) was under 100 µM.
Turning to `CC(C)N1CCN(C(CN2CCC(N3CCCCC3)CC2)c2ccccc2)CC1` (configuration not stated), the concentration for half-maximal inhibition (IC50) at Ferroportin was over 100 µM.
For `O=C(C1CCCO1)N1CCN(CC(NCc2ccccc2)c2ccc(F)cc2)CC1` (configuration not stated), the half-maximal inhibitory concentration (IC50) on Ferroportin was over 100 µM.
Still for that read-out and setting: as for `COCCN1CCN(C(CN2CCOCC2)c2ccccc2)CC1` (configuration not stated), the figure is over 100 µM.
On to `Fc1ccc(C(CN2CCN(c3cnccn3)CC2)NCc2ccccc2)cc1` (configuration not stated), for which, at Ferroportin, the IC50 is over 50 µM.
Consider `COCCN1CCN(C(CN2CCC(N3CCCCC3)CC2)c2ccc(F)cc2)CC1` (configuration not stated), for which the IC50 at Ferroportin was under 50 µM.
Take `O=C(C1CCCO1)N1CCN(CC(NCc2ccccn2)c2ccccc2)CC1` (configuration not stated): the inhibition at Hepcidin (Homo sapiens) is under 50%.
For `COCCCN1CCN(C(CN2CCC(N3CCCCC3)CC2)c2ccccc2)CC1` (configuration not stated), the IC50 at Ferroportin was under 50 µM.
Take `c1ccc(C(CN2CCN(c3cnccn3)CC2)NCc2ccccn2)cc1` (configuration not stated): the 50% inhibitory concentration (IC50) on Ferroportin was over 100 µM.
Still for that read-out and setting: the figure for `COCCN1CCN(C(CN2CCC(NC(C)=O)CC2)c2ccccc2)CC1` (configuration not stated) is under 100 µM.
